Structures are written as SMILES. Read-outs that look alike come from different tables or passages of the source. Bounds are passed on as bounds.

This is an account of results in patent US9113629B2, “4-amino-6-(4-substituted-phenyl)-picolinates and 6-amino-2-(4-substituted-phenyl)-pyrimidine-4-carboxylates and their use as herbicides” (DOW AGROSCIENCES LLC, priority 2013, dated 2015).

In assay [1] the test system is LOLSS: ryegrass including, Italian ryegrass (Lolium multiflorum), rigid ryegrass (Lolium rigidum), annual ryegrass (Lolium multiflorum subsp. Gaudini). Briefly: Post-emergent Test III, herbicidal activity in wheat and barley. The assay is classed as in vivo. Particulars: Table 9, probit analysis, 21 d; for GR50 LOLSS: dose for 50 percent growth reduction; for GR80 LOLSS: dose for 80 percent growth reduction. The procedure, abridged: (§1)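 GR20, GR50, GR80 and GR90 come from probit analysis of visual injury scores (0 = none, 100 = complete kill) taken 21 d after treatment. Foliar application was by track sprayer delivering 187 L/ha at five rates, from high down to 1/16×, onto greenhouse plants at the 2–3 leaf stage, with solvent-blank controls.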

Experiment in assay [2]: as above
The assay is classed as in vivo, Lolium multiflorum, Lolium rigidum. Particulars: Lolium multiflorum, post-emergence, 504 h, Table 9, post-emergent, 21 d, read-out: Visual Growth Reduction (%) 21 Days After Application LOLSS; for pest or weed control at 35 g/ha: 35 g ai/ha; for pest or weed control at 70 g/ha: 70 g ai/ha. The procedure, abridged:
as §1

The subject of assay [3] is SETVI: green foxtail (Setaria viridis). Described as above. Format: in vivo. Particulars: Table 9, 21 d; for pest or weed control at 35 g/ha / pest or weed control at 70 g/ha: Setaria viridis, post-emergence, 504 h, post-emergent, read-out: Visual Growth Reduction (%) 21 Days After Application SETVI; for pest or weed control at 35 g/ha: 35 g ai/ha; for pest or weed control at 70 g/ha: 70 g ai/ha; for GR50 SETVI: dose for 50 percent growth reduction; for GR50 SETVI / GR80 SETVI: probit analysis; for GR80 SETVI: dose for 80 percent growth reduction. A digest of the protocol:
as §1

In assay [4] the test system is HORSS: barley, including spring and winter (Hordeum vulgare). The assay is described as above. The assay is classed as in vivo. The conditions noted are these: for pest or weed control at 35 g/ha / pest or weed control at 70 g/ha: Hordeum vulgare, post-emergence, 504 h; for pest or weed control at 35 g/ha: 35 g ai/ha; for pest or weed control at 70 g/ha: 70 g ai/ha; for GR20 HORSS: probit analysis. The procedure, abridged: as §1

The test system of assay [5] is APESV: bentgrass (Apera spica-venti). The description is as above. Particulars: Table 9, 21 d; for pest or weed control at 35 g/ha / pest or weed control at 70 g/ha: Apera spica-venti, post-emergence, 504 h, post-emergent, read-out: Visual Growth Reduction (%) 21 Days After Application APESV; for pest or weed control at 35 g/ha: 35 g ai/ha; for pest or weed control at 70 g/ha: 70 g ai/ha; for GR50 APESV: dose for 50 percent growth reduction; for GR50 APESV / GR80 APESV: probit analysis; for GR80 APESV: dose for 80 percent growth reduction. The assay is classed as in vivo. The procedure, abridged:
as §1

The test system of assay [6] is TRZSS: wheat, including spring and winter (Triticum aestivum). Described as above. Format: in vivo. The conditions noted are these: for GR20 TRZSS: probit analysis; for pest or weed control at 35 g/ha / pest or weed control at 70 g/ha: Triticum aestivum, post-emergence, 504 h; for pest or weed control at 35 g/ha: 35 g ai/ha; for pest or weed control at 70 g/ha: 70 g ai/ha. The procedure, abridged: as §1

The test system of assay [7] is KCHSC: kochia (Kochia scoparia). The assay is described as above. Particulars: for pest or weed control at 35 g/ha / pest or weed control at 70 g/ha: Bassia scoparia, post-emergence, 504 h; for pest or weed control at 35 g/ha: 35 g ai/ha; for pest or weed control at 70 g/ha: 70 g ai/ha; for GR50 KCHSC: dose for 50 percent growth reduction; for GR50 KCHSC / GR80 KCHSC: probit analysis; for GR80 KCHSC: dose for 80 percent growth reduction. Format: in vivo. A digest of the protocol:
as §1

In assay [8] the test system is MATSS: scented mayweed (Matricaria chamomilla), pineappleweed (Matricaria matricarioides). The assay is described as above. The assay is classed as in vivo. Particulars: 21 days after application. A digest of the protocol:
as §1

[9] abbreviates: Table 9, post-emergent, 21 d, read-out: Visual Growth Reduction (%) 21 Days After Application HORSS.
The mark [10] stands for this setting: Table 9, dose for 20 percent growth reduction, 21 d.
Setting [11] is: Table 9, post-emergent, 21 d, read-out: Visual Growth Reduction (%) 21 Days After Application TRZSS.
The mark [12] stands for this setting: Table 9, post-emergent, 21 d, read-out: Visual Growth Reduction (%) 21 Days After Application KCHSC.
[13] abbreviates: 21 days after application, read-out: Visual Gorowth Reduction (%) 21 days After Application HORSS.
Where [14] appears, read: dose for 20 percent growth reduction (crop), 21 days after application.
[15] abbreviates: 21 days after application, read-out: Visual Gorowth Reduction (%) 21 days After Application TRZSS.
The mark [16] stands for this setting: 21 days after application, read-out: Visual Gorowth Reduction (%) 21 days After Application KCHSC.

On to `COc1c(N)nc(-c2ccc(C(F)(F)F)c(F)c2F)nc1C(=O)O` [Compound 76], for which, in assay [1], the “GR50 LOLSS” value is listed as 53 g ai/ha and the “GR80 LOLSS” value is recorded as 133 g ai/ha. Moreover, in assay [2], the pest or weed control at 35 g/ha is 30 to 44% and the pest or weed control at 70 g/ha lay within 45 to 59%. Also, in assay [3], the pest or weed control at 35 g/ha is 45 to 59%, the pest or weed control at 70 g/ha lay in the range of 60 to 74%, the “GR50 SETVI” value turned out to be 42 g ai/ha and the “GR80 SETVI” value came to 87 g ai/ha. In assay [4] (setting [9]), the pest or weed control at 35 g/ha lay in the range of 60 to 74% and the pest or weed control at 70 g/ha is 60 to 74%. Moreover, the “GR20 HORSS” value in assay [4] (setting [10]) came to 6 g ai/ha. For the same molecule, in assay [5], the pest or weed control at 35 g/ha was in the range of 75 to 84%, the pest or weed control at 70 g/ha is 85 to 94%, the “GR50 APESV” value was 27 g ai/ha and the “GR80 APESV” value is listed as 52 g ai/ha. The “GR20 TRZSS” value in assay [6] (setting [10]) turned out to be 4 g ai/ha. In addition, in assay [6] (setting [11]), the pest or weed control at 35 g/ha is 75 to 84% and the pest or weed control at 70 g/ha was in the range of 85 to 94%. In addition, in assay [7] (setting [12]), the pest or weed control at 35 g/ha lay within 0 to 29% and the pest or weed control at 70 g/ha is 45 to 59%. For the same molecule, in assay [7] (Table 9, 21 d), the “GR50 KCHSC” value stood at 74 g ai/ha and the “GR80 KCHSC” value amounted to 132 g ai/ha.

`COC(=O)c1nc(-c2ccc(Br)c(F)c2)c(F)c(N)c1Cl` [Compound 49]: the pest or weed control at 35 g/ha in assay [8] (Matricaria chamomilla, post-emergence, 504 h, 35 g ai/ha, read-out: Visual Gorowth Reduction (%) 21 days After Application MATSS) was in the range of 60 to 74%; in assay [4] (setting [13]) it was 75 to 84%; in assay [6] (setting [15]), 75 to 84%; in assay [7] (setting [16]), 85 to 94%. Moreover, the pest or weed control at 70 g/ha lay within 75 to 84% in assay [8] (Matricaria chamomilla, post-emergence, 504 h, 70 g ai/ha, read-out: Visual Gorowth Reduction (%) 21 days After Application MATSS); 85 to 94% in assay [4] (setting [13]); 85 to 94% in assay [6] (setting [15]); 85 to 94% in assay [7] (setting [16]). For the same molecule, the “GR50 MATSS” value in assay [8] (probit analysis, dose for 50 percent growth reduction) is listed as 15 g ai/ha. Besides, the “GR80 MATSS” value in assay [8] (probit analysis, dose for 80 percent growth reduction) is listed as 93 g ai/ha. Besides, the “GR20 HORSS” value in assay [4] (setting [14]) stood at 1 g ai/ha. Besides, the “GR20 TRZSS” value in assay [6] (setting [14]) was 1 g ai/ha. In addition, the “GR50 KCHSC” value in assay [7] (21 days after application) was 4 g ai/ha. Further, the “GR80 KCHSC” value in assay [7] (21 days after application) worked out at 18 g ai/ha.

Take `Nc1cc(-c2ccc(C(F)(F)F)c(F)c2F)nc(C(=O)O)c1Cl` [Compound 172, 4-amino-3-chloro-6-(2,3-difluoro-4-(trifluoromethyl)phenyl)picolinic acid]: in assay [1], the “GR50 LOLSS” value is more than 140 g ai/ha and the “GR80 LOLSS” value is more than 140 g ai/ha. In assay [2], the pest or weed control at 35 g/ha fell in the range of 0 to 29% and the pest or weed control at 70 g/ha lay within 0 to 29%. Further, in assay [3], the pest or weed control at 35 g/ha lay in the range of 60 to 74%, the pest or weed control at 70 g/ha lay within 75 to 84%, the “GR50 SETVI” value was 25 g ai/ha and the “GR80 SETVI” value stood at 56 g ai/ha. Also, in assay [4] (setting [9]), the pest or weed control at 35 g/ha was in the range of 60 to 74% and the pest or weed control at 70 g/ha lay within 60 to 74%. For the same molecule, the “GR20 HORSS” value in assay [4] (setting [10]) was 3 g ai/ha. In assay [5], the pest or weed control at 35 g/ha is 30 to 44%, the pest or weed control at 70 g/ha was in the range of 60 to 74%, the “GR50 APESV” value was 53 g ai/ha and the “GR80 APESV” value is 124 g ai/ha. The “GR20 TRZSS” value in assay [6] (setting [10]) was found to be 1 g ai/ha. For the same molecule, in assay [6] (setting [11]), the pest or weed control at 35 g/ha lay in the range of 75 to 84% and the pest or weed control at 70 g/ha was 75 to 84%. In assay [7] (setting [12]), the pest or weed control at 35 g/ha fell in the range of 60 to 74% and the pest or weed control at 70 g/ha lay within 60 to 74%. Moreover, in assay [7] (Table 9, 21 d), the “GR50 KCHSC” value turned out to be 38 g ai/ha and the “GR80 KCHSC” value is listed as 73 g ai/ha.
